This is an account of results in ChEMBL document CHEMBL4354844, “Discovery of Balovaptan, a Vasopressin 1a Receptor Antagonist for the Treatment of Autism Spectrum Disorder” (J Med Chem, 2020).

Active and inactive are the calls of the source.

Series [1] has as its target Vasopressin V1a receptor (Homo sapiens) (UniProt P37288). Description: Antagonist activity at human Gq5s-coupled V1a receptor expressed in CHO cells assessed as inhibition of vasopressin-induced calcium flux preincubated for 20 mins followed by vasopressin addition and measured for 5 mins by fluo-4-AM dye based FLIPR assay. Type of series: functional, cell-based.
Series [2] is described as follows: Selectivity ratio of Kb for antagonist activity at human […] receptor to Kb for antagonist activity at human Gq5s-coupled V1a receptor expressed in CHO cells.
Series [3] is described as follows: Water/octanol distribution coefficient, log D of the compound at pH 7.4 measured after 18 hrs by LC-MS analysis. The class given is physicochemical.
The nature of series [4]: Selectivity ratio of Kb for antagonist activity at human V2 receptor to Kb for antagonist activity at human Gq5s-coupled V1a receptor expressed in CHO cells.
Series [5] in a line: Intrinsic clearance in rat liver microsomes assessed per mg protein. Type of series: ADME, Microsome. Particulars: read-out: CLH. In general terms: Microsomes from liver hold many membrane-bound enzymes, among them those of drug oxidation.
Series [6] in a line: Intrinsic clearance in human liver microsomes assessed per mg protein. The class given is ADME, Microsome. Particulars: read-out: CLH.
Series [7] in a line: Half life in iv dosed human. The note with it: in vivo. Type of series: ADME, organism-based.
Series [8] has as its target MDR1 (ABCB1, P-glycoprotein) (Homo sapiens, UniProt P08183). Description: Substrate activity at human MDR1 expressed in LLC-PK1 cells assessed as efflux ratio of permeability at 1 uM measured after 3.5 hrs by lucifer yellow based scintillation counting or HPLC method. Type of series: ADME, cell-based.
A short description of series [9]: Clearance in iv dosed rat relative to hepatic blood flow. The class given is ADME, organism-based. Particulars: in vivo.
Series [10] can be described thus: Half life in iv dosed rat. The class given is ADME, organism-based. The note with it: in vivo.
For series [11], the system named is Rattus norvegicus. Description: In vivo receptor occupancy at V1a receptor in stress hyperresponsive Fischer F344 rat at 30 mg/kg, iv administered as bolus dose via catheter. The class given is functional.
In series [12] the test system is Rattus norvegicus. Description: Neuroprotective activity in stress hyperresponsive Fischer F344 rat assessed as increase in perfusion in substantia nigra at 30 mg/kg, iv administered as bolus dose via catheter by ASL-based MRI analysis. Type of series: functional, organism-based.
Series [13] concerns Rattus norvegicus. Kind of series: Neuroprotective activity in stress hyperresponsive Fischer F344 rat assessed as increase in perfusion in ventral tegmental area at 30 mg/kg, iv administered as bolus dose via catheter by ASL-based MRI analysis. Type of series: functional, organism-based.
The subject of series [14] is Rattus norvegicus. Description: Neuroprotective activity in stress hyperresponsive Fischer F344 rat assessed as increase in perfusion in hypothalamus at 30 mg/kg, iv administered as bolus dose via catheter by ASL-based MRI analysis. Type of series: functional, organism-based.
Series [15] relates to Rattus norvegicus. Description: Neuroprotective activity in iv dosed stress hyperresponsive Fischer F344 rat assessed as improvement in neural activity pattern administered as bolus dose via catheter by ASL-based MRI analysis. Type of series: functional, organism-based.
The nature of series [16]: Volume of distribution at steady state in iv dosed rat. The class given is ADME, organism-based. Particulars: in vivo, read-out: Vdss.
Series [17] deals with Rattus norvegicus. Kind of series: Neuroprotective activity in stress hyperresponsive Fischer F344 rat assessed as increase in perfusion in raphe nuclei at 30 mg/kg, iv administered as bolus dose via catheter by ASL-based MRI analysis. Type of series: functional, organism-based.

Chain of MDR1 (ABCB1, P-glycoprotein) (P08183 whole entry): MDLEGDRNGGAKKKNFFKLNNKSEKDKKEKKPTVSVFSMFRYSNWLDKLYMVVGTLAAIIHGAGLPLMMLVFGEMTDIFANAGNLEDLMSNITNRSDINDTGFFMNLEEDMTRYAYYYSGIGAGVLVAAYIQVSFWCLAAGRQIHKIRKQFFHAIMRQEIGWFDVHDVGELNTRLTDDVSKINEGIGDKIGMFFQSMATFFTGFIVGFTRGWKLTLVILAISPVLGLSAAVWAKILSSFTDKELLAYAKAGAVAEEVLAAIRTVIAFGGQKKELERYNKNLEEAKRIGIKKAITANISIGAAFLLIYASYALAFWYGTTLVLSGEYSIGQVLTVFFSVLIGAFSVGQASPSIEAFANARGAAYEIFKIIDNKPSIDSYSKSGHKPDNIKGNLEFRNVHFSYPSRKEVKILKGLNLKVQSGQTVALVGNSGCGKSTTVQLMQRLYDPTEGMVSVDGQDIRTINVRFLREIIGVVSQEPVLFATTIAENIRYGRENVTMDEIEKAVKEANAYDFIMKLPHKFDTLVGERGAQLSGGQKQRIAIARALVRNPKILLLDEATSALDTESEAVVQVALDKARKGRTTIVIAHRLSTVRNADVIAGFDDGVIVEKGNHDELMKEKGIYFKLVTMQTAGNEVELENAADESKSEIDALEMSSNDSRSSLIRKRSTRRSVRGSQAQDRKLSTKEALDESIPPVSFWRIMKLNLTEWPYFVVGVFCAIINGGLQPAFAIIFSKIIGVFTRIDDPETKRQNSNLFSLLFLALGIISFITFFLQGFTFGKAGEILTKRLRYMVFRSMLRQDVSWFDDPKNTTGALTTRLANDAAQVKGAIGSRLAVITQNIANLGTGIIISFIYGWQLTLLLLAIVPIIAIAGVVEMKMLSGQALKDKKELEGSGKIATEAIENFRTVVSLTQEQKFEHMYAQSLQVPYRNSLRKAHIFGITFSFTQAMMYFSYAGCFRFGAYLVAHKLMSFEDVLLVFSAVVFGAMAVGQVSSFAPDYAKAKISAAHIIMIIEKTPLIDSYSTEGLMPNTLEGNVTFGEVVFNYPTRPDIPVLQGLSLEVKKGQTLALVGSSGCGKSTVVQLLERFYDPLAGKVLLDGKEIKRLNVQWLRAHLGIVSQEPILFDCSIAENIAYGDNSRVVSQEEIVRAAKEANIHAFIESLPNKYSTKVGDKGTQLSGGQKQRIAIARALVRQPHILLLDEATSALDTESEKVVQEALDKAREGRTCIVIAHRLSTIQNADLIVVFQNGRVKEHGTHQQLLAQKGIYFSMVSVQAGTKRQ
Chain of Vasopressin V1a receptor (Homo sapiens) (P37288 whole entry, looked up): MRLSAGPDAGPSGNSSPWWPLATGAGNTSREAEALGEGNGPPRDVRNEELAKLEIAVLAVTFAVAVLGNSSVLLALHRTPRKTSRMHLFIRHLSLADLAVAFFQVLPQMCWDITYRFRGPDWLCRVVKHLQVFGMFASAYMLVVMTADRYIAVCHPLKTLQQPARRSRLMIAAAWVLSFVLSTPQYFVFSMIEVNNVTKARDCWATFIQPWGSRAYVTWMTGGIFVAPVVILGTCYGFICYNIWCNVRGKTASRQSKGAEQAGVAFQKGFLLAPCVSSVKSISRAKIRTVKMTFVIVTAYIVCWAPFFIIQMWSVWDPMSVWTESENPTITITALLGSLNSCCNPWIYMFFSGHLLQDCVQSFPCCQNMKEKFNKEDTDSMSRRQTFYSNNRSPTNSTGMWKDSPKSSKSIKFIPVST

A word on the pKb: it is the Kb on a negative log10 scale, so that one unit is a factor of ten. The logD is lipophilicity at a set pH, counting ionised and neutral species. Read a low logD as lower lipophilicity. As to `OCCN1Cc2cc(Cl)ccc2-n2c(nnc2[C@H]2CC[C@H](Oc3ccccc3)CC2)C1`, the pKb in [1] turned out to be 9.6. Further, the figures for the Selectivity ratio in series [2] and in [4] were 677 and 1091, respectively. In series [3], this compound gave a logD at 18 h of 2.7.
Turning to `CN1Cc2cc(Cl)ccc2-n2c(nnc2[C@H]2CC[C@@]3(CC2)OCc2ccccc23)C1`, the negative logarithm of the Kb (pKb) in series [1] turned out to be 9.2. Further, the Selectivity ratio in series [2] is given as 236; in series [4] it was 669. Moreover, the results for the microsomal CLint in series [5] and in [6] were 1000 µL/min/mg and 72 µL/min/mg, respectively.
For the compound `CN1Cc2cc(Cl)ccc2-n2c(nnc2[C@H]2CC[C@H](Oc3ccccc3)CC2)C1`, the pKb in series [1] was 9.5. The figures for the Selectivity ratio in series [2] and in series [4] were 289 and 629, respectively. This compound yielded a logD at 18 h in [3] of 3.2.
For orientation: half-life means the time needed for the level to fall by half in the phase considered. High values mean slow loss, low ones fast loss. On to `CN(C)CCn1cc(C(=O)N2CCC3(CC2)OCc2ccccc23)c2ccc(Cl)cc21` [RO-5028442], for which, in series [7], the half-life is 8 h.
In the case of `CN1Cc2cc(Cl)ccc2-n2c(nnc2[C@H]2CC[C@H](c3ccccc3)CC2)C1`, the pKb in series [1] is 9.5. In addition, the Selectivity ratio is given as 4 in series [2] and 17 in [4].
Take `CN1Cc2cc(Cl)ccc2-n2c(nnc2[C@H]2CC[C@H](c3ncccc3F)CC2)C1`: in series [3], the logD at 18 h fell in the range of 2.5 to 3.2.
For `CN1Cc2cc(Cl)ccc2-n2c(nnc2C2CCN(c3ccccn3)CC2)C1`, the pKb in series [1] is 8.9. Also, the Selectivity ratio in series [2] worked out at 2415; in series [4] it was 2478. Moreover, the microsomal CLint in series [5] was 72 µL/min/mg; in [6] it was below 10 µL/min/mg.
`CN(C)S(=O)(=O)N1Cc2cc(Cl)ccc2-n2c(nnc2[C@H]2CC[C@H](Oc3ccccc3)CC2)C1`: the pKb in series [1] was 9.5. For the same compound, the Selectivity ratio in [2] worked out at 190; in [4], 445. The logD at 18 h in [3] was determined as 4.1.
With `CN1Cc2cc(Cl)ccc2-n2c(nnc2N2CCC3(CC2)COCc2ccccc23)C1`, the pKb in [1] was found to be 9.3. The figures for the Selectivity ratio in [2] and in [4] were 14 and 167, respectively. Also, the values for the microsomal CLint in series [5] and in [6] were 949 µL/min/mg and 22 µL/min/mg, respectively.
The corresponding values for `CN1Cc2cc(Cl)ccc2-n2c(nnc2N2CCC3(CC2)OCCc2ccccc23)C1` are 8.8, 10, 44, 550 µL/min/mg and below 10 µL/min/mg.
Regarding `CN1Cc2cc(Cl)ccc2-n2c(nnc2C2CC=C(c3ccccc3)CC2)C1` (racemic), the pKb in [1] was determined as 9.3. Further, the Selectivity ratio worked out at 22 in [2] and 90 in series [4].
For `Cc1nnc(-c2ccc(-c3ccccc3)cc2)n1-c1ccccc1OCCCCCCN1CCN(C)CC1`, in that order: 8.7, 34 and 67.
In general, efflux ratio refers to the permeability from basolateral to apical divided by that in the opposite direction, in the common usage. Regarding `CN1Cc2cc(Cl)ccc2-n2c(nnc2[C@H]2CC[C@H](c3ccccn3)CC2)C1`, the pKb in series [1] came out at 9.6. For the same compound, the efflux ratio at 3.5 h, 1 µM in [8] is 4.4. In addition, the Selectivity ratio in series [2] was 863; in [4], 1081.
With `CC(C)(C)OC(=O)N1Cc2cc(Cl)ccc2-n2c(nnc2[C@H]2CC[C@H](Oc3ccccc3)CC2)C1`, the pKb in series [1] came to 8.5. Besides, the values for the Selectivity ratio in series [2] and in series [4] were 17 and 19, respectively.
For `CC(C)N1Cc2cc(Cl)ccc2-n2c(nnc2[C@H]2CC[C@H](Oc3ccccc3)CC2)C1`, the pKb in series [1] turned out to be 9.4. In addition, the Selectivity ratio in series [2] is reported as 224; in series [4], 535.
In series [3], `Cc1cc(C)nc([C@H]2CC[C@H](c3nnc4n3-c3ccc(Cl)cc3CN(C)C4)CC2)n1` gave a logD at 18 h of 2.
A word on the Kb: it is the affinity of an antagonist, worked out from how it opposes an agonist. In series [9], `CN1Cc2cc(Cl)ccc2-n2c(nnc2-c2ccc(-c3ccccc3)cc2)C1` came in with a clearance of 50 to 60%. The compound further had a half-life in [10] of 1.5 h. In addition, the Kb in series [1] is 12 nM. Moreover, in [1], the pKb was 8.6. Further, the Selectivity ratio in [2] was 13; in [4], 30. The Occ in [11] was above 90%. Moreover, the outcome in series [12], in [13], in [14] and in series [17] was Active. Moreover, the Activity result in [15] is “Dose-dependent effect”. The Vd in series [16] fell in the range of 4 to 6 L/kg.
For the compound `CN1Cc2cc(Cl)ccc2-n2c(nnc2N2CCC3(CC2)OCc2ccccc23)C1`, the negative-log Kb (pKb) in [1] was determined as 9.6. Moreover, the Selectivity ratio is 127 in [2] and 218 in series [4]. Moreover, the results for the microsomal CLint in [5] and in series [6] were 718 µL/min/mg and below 10 µL/min/mg, respectively.
For `CN1Cc2cc(Cl)ccc2-n2c(nnc2[C@H]2CC[C@H](c3ncccc3Cl)CC2)C1`, the logD at 18 h in series [3] lay within 2.5 to 3.2.
Consider `CN1Cc2cc(Cl)ccc2-n2c(nnc2[C@H]2CC[C@H](Nc3ccccn3)CC2)C1`, for which the efflux ratio at 3.5 h, 1 µM in [8] is 14.
Consider `Cc1cccc([C@H]2CC[C@H](c3nnc4n3-c3ccc(Cl)cc3CN(C)C4)CC2)n1`, for which the logD at 18 h in [3] was in the range of 2.5 to 3.2.
Take `Cc1onc([C@H]2CC[C@H](c3nnc4n3-c3ccc(Cl)cc3CN(C)C4)CC2)c1C`: the efflux ratio at 3.5 h, 1 µM in series [8] was found to be 3.8.
Compound `CN1Cc2cc(Cl)ccc2-n2c(nnc2[C@H]2CC[C@H](c3cccc(Cl)n3)CC2)C1` returned a logD at 18 h in [3] of 2.5 to 3.2.
As for `Clc1ccc2c(c1)CN(C1CCC1)Cc1nnc([C@H]3CC[C@H](Oc4ccccc4)CC3)n1-2`, the pKb in series [1] worked out at 9.3. Further, the Selectivity ratio in series [2] was found to be 113; in [4], 179. The compound further registered a log distribution coefficient (logD) at 18 h in [3] above 3.
For the compound `CN1Cc2cc(Cl)ccc2-n2c(nnc2[C@H]2CC[C@H](C3=NOCC3)CC2)C1`, the efflux ratio at 3.5 h, 1 µM in [8] came out at 6.1. The compound further gave a logD at 18 h in series [3] of 1.
The compound `CN1Cc2cc(Cl)ccc2-n2c(nnc2[C@H]2CC[C@H](c3ncc(F)cc3F)CC2)C1` showed a logD at 18 h in series [3] of 2.5 to 3.2.
Regarding `CC(=O)N1Cc2cc(Cl)ccc2-n2c(nnc2[C@H]2CC[C@H](Oc3ccccc3)CC2)C1`, the pKb in [1] is 9.5. In addition, the Selectivity ratio turned out to be 538 in series [2] and 1055 in series [4]. The compound also came in with a pH-dependent lipophilicity (logD) at 18 h in [3] of 2.9.
The corresponding values for `CS(=O)(=O)N1Cc2cc(Cl)ccc2-n2c(nnc2[C@H]2CC[C@H](Oc3ccccc3)CC2)C1` are 9.5, 191, 573 and 3.1.
`Clc1ccc2c(c1)CNCc1nnc([C@H]3CC[C@H](Oc4ccccc4)CC3)n1-2`: the pKb in series [1] was 8.7. Besides, in series [8], the efflux ratio at 3.5 h, 1 µM was determined as 4.3. For the same compound, the figures for the Selectivity ratio in [2] and in [4] were 430 and 523, respectively. In addition, the logD at 18 h in series [3] was 2.7.
On to `CN1Cc2cc(Cl)ccc2-n2c(nnc2[C@H]2CC[C@H](n3nnc4ccccc43)CC2)C1`, for which the efflux ratio at 3.5 h, 1 µM in [8] amounted to 10.9. The same compound yielded a logD at 18 h in [3] of 2.4.
For `CN1Cc2cc(Cl)ccc2-n2c(nnc2[C@H]2CC[C@H](c3noc4ccccc43)CC2)C1`, in that order: 1.4 and above 3.
For `CN(C)CC(=O)N1Cc2cc(Cl)ccc2-n2c(nnc2[C@H]2CC[C@H](Oc3ccccc3)CC2)C1`, the pKb in [1] was found to be 9.2. The Selectivity ratio in series [2] turned out to be 1025; in series [4], 963. The logD at 18 h in [3] stood at 2.5.
As to `CN1Cc2cc(Cl)ccc2-n2c(nnc2N2CCC(O)(c3ccccc3)CC2)C1`, in [1], the pKb stood at 8.6. In addition, the Selectivity ratio came out at 35 in series [2] and 38 in series [4]. Also, the microsomal CLint in [5] is 435 µL/min/mg; in series [6], below 10 µL/min/mg.
The compound `CN1Cc2cc(Cl)ccc2-n2c(nnc2[C@H]2CC[C@H](c3ccc(F)cn3)CC2)C1` gave a logD at 18 h in series [3] of 2.5 to 3.2.
As to `CN1Cc2cc(Cl)ccc2-n2c(nnc2[C@H]2CC[C@]3(CC2)OCc2ccccc23)C1`, in series [1], the pKb was determined as 9.1. Further, the Selectivity ratio in series [2] worked out at 5; in [4], 19. Moreover, the microsomal CLint in [5] turned out to be 206 µL/min/mg; in series [6] it was 10 µL/min/mg.
In the case of `CN1Cc2cc(Cl)ccc2-n2c(nnc2N2CCC3(CC2)SCc2ccccc23)C1`, in series [1], the pKb is 9. Also, the Selectivity ratio in [2] was 9; in series [4], 65. The microsomal CLint in series [5] is 493 µL/min/mg; in series [6], 24 µL/min/mg.
